Holding throughout (type): biochemical
For assay [1], the target named is T1, human PI3Kα protein (Homo sapiens, UniProt P42336).
T1 construct: purchased Carna Biosciences, Inc; host or cells: baculovirus expression system
Nature of the assay: PI3Kα enzyme assay (ADP-Glo). The note with it: read-out: PI3Kα enzyme inhibitory activity. In a few lines: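 Biotinylated human PI3Kα (baculovirus-expressed, 4.5 nmol/L) pre-incubated 15 min with compound in Tris-HCl pH 7.5, MgCl2, BSA; reaction 60 min at 25° C with 50 μmol/L PIP2 and 100 μmol/L ATP final. ADP quantified by ADP-Glo luminescence; IC50 calculated.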
Background: ADP-Glo turns the ADP formed in a reaction into a luminescent signal.

For assay [2], the target named is T2, GST fusion human ERK2 protein (Homo sapiens, UniProt P28482).
T2 construct: purchased Carna Biosciences, Inc; host or cells: E. coli expression system
T2 sequence (P28482 whole entry, the tested form may be a part): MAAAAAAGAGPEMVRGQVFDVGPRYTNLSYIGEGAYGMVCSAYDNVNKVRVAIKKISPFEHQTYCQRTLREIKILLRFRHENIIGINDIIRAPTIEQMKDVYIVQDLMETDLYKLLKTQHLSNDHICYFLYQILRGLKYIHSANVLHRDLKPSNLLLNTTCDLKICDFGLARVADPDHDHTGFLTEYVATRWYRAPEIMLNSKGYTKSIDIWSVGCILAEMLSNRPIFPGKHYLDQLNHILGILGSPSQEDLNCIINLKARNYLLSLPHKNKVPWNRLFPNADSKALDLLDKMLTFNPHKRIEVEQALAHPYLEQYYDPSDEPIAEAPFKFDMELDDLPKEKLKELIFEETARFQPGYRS
Nature of the assay: ERK2 enzyme assay (1). Particulars: read-out: ERK2 enzyme inhibitory activity (1). In a few lines: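 IC50 derived from the proportion of phosphorylated 5-FAM peptide, separated from unphosphorylated peptide by microfluidic mobility shift. Compound was first preincubated 15 min at room temperature with 2.5 nmol/L kinase at pH 7.5, then 43.1 μmol/L ATP plus 4.25 μmol/L substrate reacted 120 min at 25 °C.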

Assay [3] concerns the target T2, GST fusion human ERK2 protein. Nature of the assay: ERK2 enzyme assay (2). The note with it: read-out: ERK2 enzyme inhibitory activity (2). In a few lines:
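IC50 values come from mobility-shift measurement of phosphorylated versus unphosphorylated 5-FAM peptide substrate after EDTA quench. Beforehand, compound and 1.25 nmol/L E. coli-expressed GST–human ERK2 stood 15 min at room temperature (pH 7.5), then 1 mmol/L ATP and 4.25 μmol/L substrate (final) were added for 120 min at 25 °C.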

Where [4] appears, read: 4.5 nmol/L PI3Kα, PIP2 50 μmol/L, ATP 100 μmol/L.
Setting [5] is: 2.5 nmol/L ERK2, ATP 43.1 μmol/L.

Where two headings read alike, the source gives them in different places.

T1 sequence (P42336 whole entry): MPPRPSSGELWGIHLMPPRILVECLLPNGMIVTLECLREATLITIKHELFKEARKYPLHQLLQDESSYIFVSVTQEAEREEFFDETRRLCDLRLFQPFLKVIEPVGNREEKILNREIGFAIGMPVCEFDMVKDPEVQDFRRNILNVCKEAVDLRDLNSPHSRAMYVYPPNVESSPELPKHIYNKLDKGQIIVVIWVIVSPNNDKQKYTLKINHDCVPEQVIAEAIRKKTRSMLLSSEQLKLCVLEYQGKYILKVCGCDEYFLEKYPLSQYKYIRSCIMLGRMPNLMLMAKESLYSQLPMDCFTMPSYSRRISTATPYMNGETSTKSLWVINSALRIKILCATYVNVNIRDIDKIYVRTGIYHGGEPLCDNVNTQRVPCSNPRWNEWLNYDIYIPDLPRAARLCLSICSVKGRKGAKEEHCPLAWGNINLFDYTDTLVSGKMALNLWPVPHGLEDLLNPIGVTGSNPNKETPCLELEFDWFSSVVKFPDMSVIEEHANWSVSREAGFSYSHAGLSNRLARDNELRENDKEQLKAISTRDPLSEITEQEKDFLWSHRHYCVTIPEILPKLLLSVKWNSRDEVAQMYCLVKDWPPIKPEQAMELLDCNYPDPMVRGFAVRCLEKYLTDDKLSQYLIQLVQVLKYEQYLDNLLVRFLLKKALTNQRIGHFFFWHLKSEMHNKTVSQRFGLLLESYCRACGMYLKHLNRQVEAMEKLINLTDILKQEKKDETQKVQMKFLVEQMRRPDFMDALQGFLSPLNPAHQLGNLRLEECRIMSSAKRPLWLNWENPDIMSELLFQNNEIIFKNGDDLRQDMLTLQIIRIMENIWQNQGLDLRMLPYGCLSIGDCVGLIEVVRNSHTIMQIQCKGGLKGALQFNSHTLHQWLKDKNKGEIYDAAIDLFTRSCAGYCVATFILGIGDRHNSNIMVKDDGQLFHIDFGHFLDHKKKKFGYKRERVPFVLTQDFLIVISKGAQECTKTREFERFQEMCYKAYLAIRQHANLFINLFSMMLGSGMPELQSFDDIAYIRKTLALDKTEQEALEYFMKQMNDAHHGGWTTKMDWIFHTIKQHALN
T1 sequence (P27986 whole entry partner): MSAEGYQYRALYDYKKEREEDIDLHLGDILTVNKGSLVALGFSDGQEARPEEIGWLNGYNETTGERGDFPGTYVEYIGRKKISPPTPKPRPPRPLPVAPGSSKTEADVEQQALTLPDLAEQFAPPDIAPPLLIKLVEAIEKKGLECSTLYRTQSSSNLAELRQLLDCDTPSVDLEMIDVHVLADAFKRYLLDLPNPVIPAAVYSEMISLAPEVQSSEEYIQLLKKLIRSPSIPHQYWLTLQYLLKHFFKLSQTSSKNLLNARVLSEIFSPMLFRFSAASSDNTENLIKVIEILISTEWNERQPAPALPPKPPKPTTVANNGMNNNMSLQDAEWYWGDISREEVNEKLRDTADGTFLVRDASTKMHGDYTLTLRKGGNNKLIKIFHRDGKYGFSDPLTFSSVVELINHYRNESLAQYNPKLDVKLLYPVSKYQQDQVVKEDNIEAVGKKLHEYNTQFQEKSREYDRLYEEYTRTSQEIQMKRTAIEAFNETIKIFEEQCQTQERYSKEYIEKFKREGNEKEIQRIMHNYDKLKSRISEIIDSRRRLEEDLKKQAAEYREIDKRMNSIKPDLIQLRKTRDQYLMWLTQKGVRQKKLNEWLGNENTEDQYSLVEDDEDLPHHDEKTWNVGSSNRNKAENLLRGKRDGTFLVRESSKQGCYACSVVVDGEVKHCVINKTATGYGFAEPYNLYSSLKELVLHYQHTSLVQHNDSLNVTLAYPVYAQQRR

Take `CC(C)c1cnnc(Nc2ccc3ncc(-c4cnn(C)c4)nc3n2)c1` [Example 0014, N-(5-isopropylpyridazin-3-yl)-3-(1-methyl-1H-pyrazol-4-yl)pyrido[2,3-b]pyrazine-6-amine]: the IC50 in assay [1] (setting [4]) is less than 1000 nM; in assay [2] (setting [5]) it was less than 1000 nM; in assay [3] (1.25 nmol/L ERK2, ATP 1 mmol/L), less than 1000 nM.
Regarding `c1nc2ccc(Nc3cc(C4CCCC4)cnn3)nc2cc1-c1cnn(CCCN2CCCC2)c1` [Example 0016], the IC50 in assay [1] (setting [4]) is less than 1000 nM; in assay [2] (setting [5]), less than 1000 nM; in assay [3] (1.25 nmol/L ERK2, ATP 1 mmol/L), less than 1000 nM.
For `c1nc2ccc(Nc3cc(C4CCCCC4)cnn3)nc2cc1-c1cnn(CCCN2CCCC2)c1` [Example 0017], the IC50 in assay [1] (setting [4]) is less than 1000 nM; in assay [2] (setting [5]), less than 1000 nM; in assay [3] (1.25 nmol/L ERK2, ATP 1 mmol/L) it was less than 1000 nM.
`CC(C)c1cnnc(Nc2ccc3ncc(-c4cnn(CCCN5CCN(C)CC5)c4)cc3n2)c1` [Example 0021, N-(5-isopropylpyridazin-3-yl)-7-(1-(3-(4-methylpiperazin-1-yl)propyl)-1H-pyrazol-4-yl)-1,5-naphthyridine-2-amine]: the IC50 is less than 1000 nM in assay [1] (setting [4]); less than 1000 nM in assay [2] (setting [5]); less than 1000 nM in assay [3] (1.25 nmol/L ERK2, ATP 1 mmol/L).
As for `C[Si](C)(C)CCOCn1cc(-c2cnc3ccc(Nc4nncs4)nc3c2)cn1` [Example 0025, N-(7-(1-((2-(trimethylsilyl)ethoxy)methyl)-1H-pyrazol-4-yl)-1,5-naphthyridin-2-yl)-1,3,4-thiadiazole-2-amine], the IC50 in assay [1] (setting [4]) was 1000 to 10000 nM; in assay [2] (setting [5]) it was less than 1000 nM; in assay [3] (1.25 nmol/L ERK2, ATP 1 mmol/L) it was less than 1000 nM.
On to `Cn1cc(-c2cnc3ccc(Nc4nncs4)nc3c2)cn1` [Example 0026, N-(7-(1-methyl-1H-pyrazol-4-yl)-1,5-naphthyridin-2-yl)-1,3,4-thiadiazole-2-amine], for which the IC50 in assay [1] (setting [4]) was less than 1000 nM; in assay [2] (setting [5]), less than 1000 nM; in assay [3] (1.25 nmol/L ERK2, ATP 1 mmol/L), less than 1000 nM.
`c1cnc2[nH]cc(-c3cnc4ccc(Nc5nnc(C6CCCC6)s5)nc4c3)c2c1` [Example 0111]: the IC50 in assay [2] (setting [5]) is less than 1000 nM; in assay [3] (1.25 nmol/L ERK2, ATP 1 mmol/L), less than 1000 nM.
Consider `Cn1cc(-c2cnc3ccc(Nc4nnc(C5CCCC5)s4)nc3c2)c2cccnc21` [Example 0113], for which the IC50 in assay [2] (setting [5]) was less than 1000 nM; in assay [3] (1.25 nmol/L ERK2, ATP 1 mmol/L), less than 1000 nM.
Take `CCCc1nnc(Nc2ccc3ncc(-c4cnn(C)c4)cc3n2)s1` [Example 0169, N-(7-(1-methyl-1H-pyrazol-4-yl)-1,5-naphthyridin-2-yl)-5-propyl-1,3,4-thiadiazole-2-amine]: the IC50 was less than 1000 nM in assay [2] (setting [5]) and less than 1000 nM in assay [3] (1.25 nmol/L ERK2, ATP 1 mmol/L).
As to `Cn1cc(-c2cnc3ccc(Nc4nnc(C5CCCCC5)s4)nc3c2)cn1` [Example 0217, 5-Cyclohexyl-N-(7-(1-methyl-1H-pyrazol-4-yl)-1,5-naphthyridin-2-yl)-1,3,4-thiadiazole-2-amine], the IC50 in assay [2] (ERK2 enzyme assay (1)) and in assay [3] (ERK2 enzyme assay (2)) was less than 1000 nM throughout.
On to `Cn1cc(-c2cc3nc(Nc4nnc(C5CCCC5)s4)ccc3nc2Cl)cn1` [Example 0349, N-(6-chloro-7-(1-methyl-1H-pyrazol-4-yl)-1,5-naphthyridin-2-yl)-5-cyclopentyl-1,3,4-thiadiazole-2-amine], for which the IC50 in assay [2] (ERK2 enzyme assay (1)) was less than 1000 nM; in assay [3] (ERK2 enzyme assay (2)), 1000 to 10000 nM.
The like results for `CCOc1nc2ccc(Nc3nnc(C4CCCC4)s3)nc2cc1-c1cnn(C)c1` [Example 0357, 5-Cyclopentyl-N-(6-ethoxy-7-(1-methyl-1H-pyrazol-4-yl)-1,5-naphthyridin-2-yl)-1,3,4-thiadiazole-2-amine] were, in that order, 1000 to 10000 nM and 1000 to 10000 nM.
Take `CCc1nn(CCCN2CCOCC2)cc1-c1cnc2ccc(Nc3cc(C(C)C)cnn3)nc2c1` [Example 0385, 7-(3-ethyl-1-(3-morpholinopropyl)-1H-pyrazol-4-yl)-N-(5-isopropylpyridazin-3-yl)-1,5-naphthyridine-2-amine]: the IC50 in assay [1] and in assay [2] (ERK2 enzyme assay (1)) was less than 1000 nM each time.
As for `CCc1nn(CCCN2CCCC2)cc1-c1cnc2ccc(Nc3cc(C(C)C)cnn3)nc2c1` [Example 0386, 7-(3-ethyl-1-(3-(pyrrolidin-1-yl)propyl)-1H-pyrazol-4-yl)-N-(5-isopropylpyridazin-3-yl)-1,5-naphthyridine-2-amine], the IC50 in assay [1] and in assay [2] (ERK2 enzyme assay (1)) was less than 1000 nM throughout.
Take `CC(C)c1cnnc(Nc2ccc3ncc(Nc4cncnc4)cc3n2)c1` [Example 0387, N^2-(5-isopropylpyridazin-3-yl)-N^7-(pyrimidin-5-yl)-1,5-naphthyridine-2,7-diamine]: the IC50 in assay [1] and in assay [2] (ERK2 enzyme assay (1)) was less than 1000 nM each time.
As to `Cc1cnnc(Nc2ccc3ncc(Nc4cncnc4)cc3n2)c1` [Example 0388, N^2-(5-methylpyridazin-3-yl)-N^7-(pyrimidin-5-yl)-1,5-naphthyridine-2,7-diamine], the figures for the IC50 in assay [1] and in assay [2] (ERK2 enzyme assay (1)) were 1000 to 10000 nM and less than 1000 nM, respectively.
The like results for `COCCc1nn(C)cc1-c1cnc2ccc(Nc3nnc(C(C)C)s3)nc2c1` [Example 0389, 5-isopropyl-N-(7-(3-(2-methoxyethyl)-1-methyl-1H-pyrazol-4-yl)-1,5-naphthyridin-2-yl)-1,3,4-thiadiazole-2-amine] were, in that order, less than 1000 nM and less than 1000 nM.
The like results for `CCCc1nn(CCCN2CCCC2)cc1-c1cnc2ccc(Nc3cc(C(C)C)cnn3)nc2c1` [Example 0391, N-(5-isopropylpyridazin-3-yl)-7-(3-propyl-1-(3-(pyrrolidin-1-yl)propyl)-1H-pyrazol-4-yl)-1,5-naphthyridine-2-amine] were, in that order, less than 1000 nM and less than 1000 nM.
The like results for `CC(C)c1cnnc(Nc2ccc3ncc(N4CCOCC4)cc3n2)c1` [Example 0392, N-(5-isopropylpyridazin-3-yl)-7-morpholino-1,5-naphthyridine-2-amine] were, in that order, less than 1000 nM and less than 1000 nM.
In the case of `CC(C)c1cnnc(Nc2ccc3ncc(-c4cn(C)nc4CO[Si](C)(C)C(C)(C)C)cc3n2)c1` [Example 0393, 7-(3-(((tert-butyldimethylsilyl)oxy)methyl)-1-methyl-1H-pyrazol-4-yl)-N-(5-isopropylpyridazin-3-yl)-1,5-naphthyridine-2-amine], the results for the IC50 in assay [1] and in assay [2] (ERK2 enzyme assay (1)) were 1000 to 10000 nM and less than 1000 nM, respectively.
Consider `CC(C)c1cnnc(Nc2ccc3ncc(-c4cn(C)nc4CO)cc3n2)c1` [Example 0394, (4-(6-((5-isopropylpyridazin-3-yl)amino)-1,5-naphthyridin-3-yl)-1-methyl-1H-pyrazol-3-yl)methanol], for which the IC50 in assay [1] and in assay [2] (ERK2 enzyme assay (1)) was less than 1000 nM in each case.
For `Cc1cnnc(Nc2ccc3ncc(-c4cn(C)nc4CO[Si](C)(C)C(C)(C)C)cc3n2)c1` [Example 0396, 7-(3-(((tert-butyldimethylsilyl)oxy)methyl)-1-methyl-1H-pyrazol-4-yl)-N-(5-methylpyridazin-3-yl)-1,5-naphthyridine-2-amine], the IC50 was 10000 to 50000 nM in assay [1] and less than 1000 nM in assay [2] (ERK2 enzyme assay (1)).
As for `Cc1cnnc(Nc2ccc3ncc(-c4cn(C)nc4CO)cc3n2)c1` [Example 0397, (1-methyl-4-(6-((5-methylpyridazin-3-yl)amino)-1,5-naphthyridin-3-yl)-1H-pyrazol-3-yl)methanol], the IC50 in assay [1] and in assay [2] (ERK2 enzyme assay (1)) was less than 1000 nM throughout.
For `CC(C)c1cnnc(Nc2ccc3ncc(-c4cnn(-c5cccnc5)c4)cc3n2)c1` [Example 0398, N-(5-isopropylpyridazin-3-yl)-7-(1-(pyridin-3-yl)-1H-pyrazol-4-yl)-1,5-naphthyridine-2-amine], the IC50 in assay [1] and in assay [2] (ERK2 enzyme assay (1)) was less than 1000 nM throughout.
As to `CC(C)c1cnnc(Nc2ccc3ncc(-c4cnn(-c5ccncc5)c4)cc3n2)c1` [Example 0399, N-(5-isopropylpyridazin-3-yl)-7-(1-(pyridin-4-yl)-1H-pyrazol-4-yl)-1,5-naphthyridine-2-amine], the IC50 in assay [1] is 1000 to 10000 nM; in assay [2] (ERK2 enzyme assay (1)), less than 1000 nM.
The like results for `CC(=O)OCC(C)(C)c1cnnc(Nc2ccc3ncc(-c4cnn(CCCN5CCCC5)c4)cc3n2)c1` [Example 0404, 2-Methyl-2-(6-((7-(1-(3-(pyrrolidin-1-yl)propyl)-1H-pyrazol-4-yl)-1,5-naphthyridin-2-yl)amino)pyridazin-4-yl)propyl acetate] were, in that order, less than 1000 nM and less than 1000 nM.
The like results for `CC(C)c1cnnc(Nc2ccc3ncc(-c4cccnc4)cc3n2)c1` [Example 0407] were, in that order, 1000 to 10000 nM and less than 1000 nM.
With `Cn1cc(-c2cnc3ccc(Nc4ccc(NS(C)(=O)=O)nn4)nc3c2)cn1` [Example 0409], the values for the IC50 in assay [1] and in assay [2] (ERK2 enzyme assay (1)) were less than 1000 nM and 1000 to 10000 nM, respectively.
Take `CC(C)c1nnc(Nc2ccc3ncc(-c4cnn(C)c4-c4cnn(C)c4)cc3n2)s1` [Example 0476, N-(7-(1′,2-dimethyl-1′H,2H-[3,4′-bipyrazole]-4-yl)-1,5-naphthyridin-2-yl)-5-isopropyl-1,3,4-thiadiazole-2-amine]: the IC50 in assay [1] and in assay [2] (ERK2 enzyme assay (1)) was less than 1000 nM throughout.
Regarding `CC(C)c1nnc(Nc2ccc3ncc(-c4cn(C)nc4-c4cnn(C)c4)cc3n2)s1` [Example 0477], the IC50 in assay [1] and in assay [2] (ERK2 enzyme assay (1)) was less than 1000 nM throughout.
